Earlier results, collected in patent publication US11796546B2, “Methods for quantifying drug concentration in a prodrug composition” (GENZYME CORPORATION, priority 2019, dated 2023).

What was measured:
[1] = tested on: type 2 diabetes mellitus patients

For “HdSQGTFTSDLSKQK(γE-palmitate)ESKAAQDFIEWLKAGGPSSGAPPPS-NH2 [SAR425899]”, the “glycemic control and weight loss” value [1] is given as “facilitate glycemic control and weight loss” and the in vivo clearance is given as “rapid in vivo clearance”.
